Measured values: patent publication US20100160268A1, “Isoflavonoid Analogs and their Metal Conjugates as Anti-Cancer Agents” (priority 2005, published 2010)

How the values were obtained:
[1] = tested on: breast cancer cell line (T47D); assay: Propidium iodide / Hoechst 33342 fluorescence microscopy for apoptosis; format: cell-based
Method: To provide further evidence of apoptosis, we carried out […] using a mixture of propidium iodide (PI) and Hoechst dye 33342 to determine the integrity of cell membranes of cancer cells. The quantification of the apoptosis was carried out by cell count after staining with PI followed by visualization of treated cells by fluorescence analysis. The fluorescent dyes PI and Hoechst 33342 were added to the cell culture medium after treatment with the test compounds (10 μM) for 48 h at a final concentrations of 10 μg/ml (PI dye) and Hoechst 33342 (1 μg/ml), respectively. After 5 minutes at 37° C. the cells were placed under a fluorescence microscope (Nikon Optiphot) with a filter block giving excitation at 380 nm and 480 nm.

[2] = tested on: Akt, p-Akt and PARP in PC3 cells; assay: Western blot of Akt, p-Akt and PARP; format: cell-based, human; details: 10 and 20 μM, 72 h
Method: Control cells were incubated in the medium with Na2CO3 using same time point. After incubation the cells were lysed with This-HCl (62.5 mm) and 2% SDS. Protein concentration was then measured using […] protein assay (Pierce Chemical Co., Rockford, Ill.). Cell extracts were subjected to 10% SDS-PAGE and electrophoretically transferred to nitrocellulose membrane. Membranes were then incubated with monoclonal anti-Akt (epitome: amino acids 345-480 of Akt1, 1:500; Ontogeny, 26. San Diego, Calif.), anti-phosphor-Akt Ser473 (1:1000; Cell Signaling, Beverly, Mass.), primary monoclonal anti-PARP antibody (1:5000; Biomol, Plymouth Meeting, Pa.) and anti-β-actin (1:5000; Sigma) antibodies, washed with TTBS, and incubated with secondary antibody conjugated with peroxidase. The signal was then detected using the chemiluminescent detection system (Pierce, Rockford, Ill.).

NF-κB = assay: EMSA of NF-κB in tumor tissue of orthotopic pancreatic model; format: in vivo, mice
Method: The redox sensitive transcription factor NF-κB, is downstream of the Akt kinase protein and plays major role in the cell proliferation and metastasis and resistance in major cancers such as breast, prostate and pancreatic. […] Nuclear proteins were extracted from the tumor tissue as described previously (see, for example, Banerjee, et al., Cancer Research, Vo. 65, p. 9064 (2005)) and kept at −70° C. until use. Protein concentration was determined using the bicinchonic acid assay kit with BSA as the standard (Pierce Chemical Co., Rockford, Ill.). The incubation mixture included 25 mM DTT and 2.5% Tween 20 in a binding buffer. The DNA-protein complex formed was separated from free oligonucleotide on 8.0% native polyacralyamide gel using buffer containing 50 mM Tris, 200 mm glycine, pH 8.5, and 1 mM EDTA, and then visualized by Odyssey Infrared Imaging System using Odyssey Software Release 1.1.
However, there were significant differences in the pattern of necrosis, inflammatory response and fibrosis among these two groups. […] The viable tumor cells form large nests or sheets with minimal stromal fibrosis and inflammatory infiltrates. […] Only 20% of the mass was viable. The viable neoplastic cells form small nests of clusters associated with extensive stromal fibrosis and inflammatory infiltrates (See, FIG. 10c). […]

COLO 357 cells = assay: Orthotopic pancreatic tumor model; format: in vivo
Source text: Since the NF-κB pathway is regulated by Akt protein, the effects of the FPA-124 on NF-κB activity was studied in an in vivo experiment, specifically the well-established orthotopic pancreatic tumor model using COLO 357 cells.

[3] = tested on: vascular endothelial growth factor (VEGF) in BxPC3 cells; assay: In vitro expression of VEGF (ELISA); format: cell-based, human; details: 10 μM, 20 μM, 72 h
Method: BxPC3 cells (0.1×10^6/well) were plated into 6-well plates and incubated in supplemented RPMI containing 10% FBS.

tumor cells = assay: Incubation with copper conjugate at IC50 concentration, viability and apoptosis (data not shown); format: cell-based
[4] = tested on: Colo357, BxPC3, BT20, and PC3 cells; assay: Cell Death Detection ELISA apoptosis assay; format: cell-based; details: FIG. 15, among FPA-124, FPA-125, FPA-127
Method: To determine whether the metal conjugates induce apoptosis in tumor cells, quantitative evaluation of apoptosis was carried out with a Cell Death Detection ELISA kit (Roche, Palo Alto, Calif.). Apoptosis was detected according to the protocol supplied by the manufacturer.
Since all copper compounds are redox active metal conjugates, we believe that redox triggered oxidative stress may be one of the underlying mechanisms for the observed apoptotic cell death in the present case. […] This observation is also in accordance with the favorable distortion factor calculated for the present copper compounds using EPR spectra, which factor helps stabilize cuprous and cupric species without dissociation of the conjugate.

[5] = tested on: MCF-7, T47D, BT20, MDA-MB231, PC3, BxPC3, COLO357 cancer cell lines; assay: MTT assay, panel of breast, prostate and pancreatic cancer cell lines; format: cell-based; details: in words
Method: (§1) The compounds were tested in multiple panels of breast (MCF-7, T47D, BT20 and MDA-MB231), prostate (PC3), and pancreatic (BxPC3, COLO357) cancer cell lines, using the dye 3-[4,5 dimethylthiazol-2-yl]-2,5 diphenyltetrazolium bromide (MTT assay) according to a method described in Banerjee, et al., Cancer Research, Vol. 62, page 4945 (2002).
More specifically, the tumor cell lines MCF-7, MDA-MB 231 and COLO 357 were maintained in Dulbecco's modifed Eagle's medium (DMEM) with phenol red. Cell lines T47D, BT20, PC3 and BxPC3 were routinely cultured in RPMI medium, each medium being supplemented with Penicillin (50 U/ml), Streptomycin (50 μg/ml) and 10% fetal calf serum (FCS) (Gibco, Myclone). The cell lines were cultured in a humidified incubator in an atmosphere of 5% CO2 and were maintained in continuous exponential growth by twice a week passage.
Adherent cells at a logarithmic phase were detached by addition of 2-3 ml of trypsin (Gibco), 0.02% EDTA mixture and incubation at 37° C. Cells were plated (100 μL per well) in 48 well flat bottom microtiter plates at densities of 2000 to 5000 per cm^2 (MCF-7, […], T47D, BT20, PC3, BxPC3, COLO357) cells per well. Cells were incubated for 24 h at 37° C. to resume exponential growth. […] Cell proliferation was evaluated after 72h by means of MTT assay.

[6] = tested on: BT20, PC3, Colo357 and BxPC3 cancer cell lines; assay: MTT cell proliferation assay, four cell lines; format: cell-based; details: text b152; read-out: IC50 values in multiple cancer cell lines
Method: as §1
Adherent cells at a logarithmic phase were detached by addition of 2-3 ml of trypsin (Gibco), 0.02% EDTA mixture and incubation at 37° C. Cells were plated (100 μL per well) in 48 well flat bottom microtiter plates at densities of 2000 to 5000 per cm^2 (MCF-7, […], T47D, BT20, PC3, BxPC3, COLO357) cells per well. Cells were incubated for 24 h at 37° C. to resume exponential growth. The test compounds were dissolved in DMSO (final concentration 0.1%) and added to the cells 24 h after seeding at varying concentrations. Control wells containing the culture medium, were included in each experiment. Cell proliferation was evaluated after 72h by means of MTT assay.
The biological effects of these compounds were studied against the hormone independent breast (BT20) and prostate (PC3) cancers as well as K-ras positive (Colo357) and K-ras negative (BxPC3) pancreatic cancer cell lines.

[7] = FPA-102 25 mg/kg i.v. on alternate days

Question: For `CC(=O)C1CCC2C3CCC4=CC(=NNC(N)=S)CCC4(C)C3CCC12C.[Cl][Cu][Cl]` (centres unmarked) [FPA-102], which “cell morphology after PI/Hoechst staining” value ([1]; IC50 concentration (10 μM), FIG. 7b) is on record?
Answer: nuclear condensation and membrane damage

Question: What about the “potency of inducing apoptosis among the metal conjugates” value ([1]; comparison within series FPA-102 to FPA-104) of the same compound?
Answer: highest potency of inducing apoptosis

Question: And the “PARP degradation / cleavage” value [2]?
Answer: induces poly (ADP-ribose) polymerase degradation

Question: And the phosphor-Akt level [2]?
Answer: down regulates

Question: What about the “NF-κB in the tumor tissue (EMSA)” value (NF-κB; treatment for 10 days once every alternate day) of the same compound?
Answer: down-regulation of NF-κB

Question: What about the “body weight of treated mice (toxicity)” value (COLO 357 cells; [7]) of the same compound?
Answer: no significant change in the body weight

Question: What about the tumor burden (COLO 357 cells; [7]) of the same compound?
Answer: decrease tumor burden

Question: And the “viable part of tumor mass” value (COLO 357 cells; tumor histology of treated mice)?
Answer: 20%

Question: What about the VEGF levels [3] of the same compound?
Answer: decrease in the VEGF levels

Question: And the apoptotic cells (tumor cells; 24-48 h treatment at IC50 concentration)?
Answer: ~95%

Question: What about the non-viable cells (tumor cells; 3 h incubation at IC50 concentration) of the same compound?
Answer: 40%

Question: For `NC1=[S+][Cu-2]([Cl])([Cl])[N+](=Cc2coc3ccccc3c2=O)N1` [FPA-124], which “NF-κB activity in the tumor tissue (EMSA)” value (NF-κB; FPA-124, FIG. 17c) is on record?
Answer: significantly decreased

Question: And the “body weight of the treated animals (toxicity)” value (COLO 357 cells; FPA-124, FIG. 17a)?
Answer: no change in the body weight

Question: What about the tumor load (COLO 357 cells; FPA-124, FIG. 17b) of the same compound?
Answer: decrease in the tumor load

Question: And the “apoptosis by ELISA, ranking” value [4]?
Answer: most active compound

Question: How did the “antiproliferative action against the cell lines tested” value [5] turn out when `CC(=O)C1CCC2C3CCC4=CC(=NNC(N)=S)CCC4(C)C3CCC12C` (centres unmarked) [FPA-101, 17-acetyl-10,13-dimethyl-1,2,6,7,8,9,11,12,13,14,15,16,17-tetradecahydrocyclopenta[a]phenanthren-3-thiosemicarbazone] was run?
Answer: moderate antiproliferative action

Question: Which IC50 [6] does the source give for `O=c1c(-c2ccc(O)cc2)coc2cc(O)cc(O)c12` [Genistein, 4,5,7,-trihydroxyisoflavone] here?
Answer: > 40 µM
